Experimental data from the supplement of paper PMC10307832.

Columns and labels:
Assay in all cases: relative viability (nuclei count vs DMSO), 5 days (fraction); higher = more cells survive
[1] = compound: O[C@@H](COc1cccc2ncccc12)CN1CCN([C@@H]2c3ccccc3[C@@H]3[C@H](c4ccccc42)C3(F)F)CC1 [Zosuquidar] + Nc1nc2[nH]cc(CCc3ccc(C(=O)N[C@@H](CCC(=O)O)C(=O)O)cc3)c2c(=O)[nH]1 [Pemetrexed] (partner 0.2 µM)
Procedure, shortened: (§1)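 Relative viability was taken as the ratio of nuclei in treated wells to nuclei in vehicle wells. Lung cancer cell lines in 1536-well plates received compounds by pin tool one day after seeding, either one drug alone or a fixed anchor-drug dose plus five library-drug doses (not always all listed) in √10 steps. Nuclei were counted on 4× images after 5 days of treatment, and values are medians of duplicate plates.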

[2] = compound: COc1cc2nccc(Oc3ccc(NC(=O)C4(C(=O)Nc5ccc(F)cc5)CC4)cc3)c2cc1OC [Cabozantinib] + Cc1cc(Nc2cc(N3CCN(C)CC3)nc(Sc3ccc(NC(=O)C4CC4)cc3)n2)n[nH]1 [Tozasertib] (partner 0.1 µM)
Procedure, shortened: as §1

[3] = compound: O[C@@H](COc1cccc2ncccc12)CN1CCN([C@@H]2c3ccccc3[C@@H]3[C@H](c4ccccc42)C3(F)F)CC1 [Zosuquidar] + CC1(C)CCC(c2ccc(Cl)cc2)=C(CN2CCN(c3ccc(C(=O)NS(=O)(=O)c4ccc(N[C@H](CCN5CCOCC5)CSc5ccccc5)c(S(=O)(=O)C(F)(F)F)c4)cc3)CC2)C1 [Navitoclax] (partner 0.5 µM)
Procedure, shortened: as §1

[4] = compound: COc1cc2nccc(Oc3ccc(NC(=O)C4(C(=O)Nc5ccc(F)cc5)CC4)cc3)c2cc1OC [Cabozantinib] + CC(C)C[C@H](NC(=O)[C@H](Cc1ccccc1)NC(=O)c1cnccn1)B(O)O [Bortezomib] (partner 0.002 µM)
Procedure, shortened: as §1

Cell Line: PC-14
- relative viability ([1]; first compound 0.01 µM): 0.119
- relative viability ([1]; first compound 0.03162 µM): 0.147
- relative viability ([1]; first compound 0.1 µM): 0.134
- relative viability ([1]; first compound 0.3162 µM): 0.128
- relative viability ([1]; first compound 1 µM): 0.142
- relative viability ([2]; first compound 0.02 µM): 0.656
- relative viability ([2]; first compound 0.06325 µM): 0.668
- relative viability ([2]; first compound 0.6325 µM): 0.547
- relative viability ([2]; first compound 2 µM): 0.526
- relative viability ([3]; first compound 0.01 µM): 1.05
- relative viability ([3]; first compound 0.03162 µM): 0.988
- relative viability ([3]; first compound 0.1 µM): 0.983
- relative viability ([3]; first compound 0.3162 µM): 0.934
- relative viability ([3]; first compound 1 µM): 0.959
- relative viability ([4]; first compound 0.02 µM): 0.952
- relative viability ([4]; first compound 0.06325 µM): 0.89
- relative viability ([4]; first compound 0.6325 µM): 0.829
- relative viability ([4]; first compound 2 µM): 0.8

Cell Line: NCI-H1755
- relative viability ([1]; first compound 0.01 µM): 0.448
- relative viability ([1]; first compound 0.03162 µM): 0.428
- relative viability ([1]; first compound 0.1 µM): 0.426
- relative viability ([1]; first compound 0.3162 µM): 0.426
- relative viability ([1]; first compound 1 µM): 0.452
- relative viability ([2]; first compound 0.02 µM): 0.673
- relative viability ([2]; first compound 0.06325 µM): 0.666
- relative viability ([2]; first compound 0.2 µM): 0.618
- relative viability ([2]; first compound 0.6325 µM): 0.529
- relative viability ([2]; first compound 2 µM): 0.539
- relative viability ([3]; first compound 0.01 µM): 0.988
- relative viability ([3]; first compound 0.03162 µM): 1.01
- relative viability ([3]; first compound 0.1 µM): 0.954
- relative viability ([3]; first compound 0.3162 µM): 1.07
- relative viability ([3]; first compound 1 µM): 0.949
- relative viability ([4]; first compound 0.02 µM): 0.962
- relative viability ([4]; first compound 0.06325 µM): 1
- relative viability ([4]; first compound 0.2 µM): 0.903
- relative viability ([4]; first compound 0.6325 µM): 0.895
- relative viability ([4]; first compound 2 µM): 0.928

Cell Line: NCI-H1651
- relative viability ([1]; first compound 0.01 µM): 0.55
- relative viability ([1]; first compound 0.03162 µM): 0.653
- relative viability ([1]; first compound 0.1 µM): 0.425
- relative viability ([1]; first compound 0.3162 µM): 0.533
- relative viability ([1]; first compound 1 µM): 0.644
- relative viability ([2]; first compound 0.02 µM): 0.861
- relative viability ([2]; first compound 0.06325 µM): 0.739
- relative viability ([2]; first compound 0.2 µM): 0.754
- relative viability ([2]; first compound 0.6325 µM): 0.706
- relative viability ([2]; first compound 2 µM): 0.48
- relative viability ([3]; first compound 0.01 µM): 0.949
- relative viability ([3]; first compound 0.03162 µM): 0.987
- relative viability ([3]; first compound 0.1 µM): 1.05
- relative viability ([3]; first compound 0.3162 µM): 0.977
- relative viability ([3]; first compound 1 µM): 1.01
- relative viability ([4]; first compound 0.02 µM): 0.883
- relative viability ([4]; first compound 0.06325 µM): 1.03
- relative viability ([4]; first compound 0.2 µM): 0.891
- relative viability ([4]; first compound 0.6325 µM): 0.904
- relative viability ([4]; first compound 2 µM): 0.985

Cell Line: HCC-15
- relative viability ([1]; first compound 0.01 µM): 0.209
- relative viability ([1]; first compound 0.03162 µM): 0.218
- relative viability ([1]; first compound 0.1 µM): 0.255
- relative viability ([1]; first compound 0.3162 µM): 0.219
- relative viability ([1]; first compound 1 µM): 0.236
- relative viability ([2]; first compound 0.02 µM): 0.462
- relative viability ([2]; first compound 0.06325 µM): 0.432
- relative viability ([2]; first compound 0.2 µM): 0.437
- relative viability ([2]; first compound 0.6325 µM): 0.44
- relative viability ([2]; first compound 2 µM): 0.267
- relative viability ([3]; first compound 0.01 µM): 0.723
- relative viability ([3]; first compound 0.03162 µM): 0.702
- relative viability ([3]; first compound 0.1 µM): 0.683
- relative viability ([3]; first compound 0.3162 µM): 0.665
- relative viability ([3]; first compound 1 µM): 0.667
- relative viability ([4]; first compound 0.02 µM): 0.974
- relative viability ([4]; first compound 0.06325 µM): 1.1
- relative viability ([4]; first compound 0.2 µM): 0.995
- relative viability ([4]; first compound 0.6325 µM): 1.02
- relative viability ([4]; first compound 2 µM): 1.09

Cell Line: PC-3 [JPC-3]
- relative viability ([1]; first compound 0.01 µM): 1.34
- relative viability ([1]; first compound 0.03162 µM): 1.04
- relative viability ([1]; first compound 0.1 µM): 0.873
- relative viability ([1]; first compound 0.3162 µM): 1.1
- relative viability ([1]; first compound 1 µM): 0.366
- relative viability ([2]; first compound 0.02 µM): 0.928
- relative viability ([2]; first compound 0.06325 µM): 1.04
- relative viability ([2]; first compound 0.6325 µM): 0.938
- relative viability ([2]; first compound 2 µM): 0.861
- relative viability ([3]; first compound 0.01 µM): 0.783
- relative viability ([3]; first compound 0.03162 µM): 0.775
- relative viability ([3]; first compound 0.1 µM): 0.755
- relative viability ([3]; first compound 0.3162 µM): 0.792
- relative viability ([3]; first compound 1 µM): 0.755
- relative viability ([4]; first compound 0.02 µM): 0.802
- relative viability ([4]; first compound 0.06325 µM): 0.992
- relative viability ([4]; first compound 0.6325 µM): 0.863
- relative viability ([4]; first compound 2 µM): 0.867

Cell Line: HOP-62
- relative viability ([1]; first compound 0.01 µM): 0.256
- relative viability ([1]; first compound 0.03162 µM): 0.38
- relative viability ([1]; first compound 0.1 µM): 0.341
- relative viability ([1]; first compound 0.3162 µM): 0.308
- relative viability ([1]; first compound 1 µM): 0.295
- relative viability ([2]; first compound 0.02 µM): 0.398
- relative viability ([2]; first compound 0.06325 µM): 0.388
- relative viability ([2]; first compound 0.2 µM): 0.378
- relative viability ([2]; first compound 0.6325 µM): 0.376
- relative viability ([2]; first compound 2 µM): 0.346
- relative viability ([3]; first compound 0.01 µM): 0.825
- relative viability ([3]; first compound 0.03162 µM): 1.13
- relative viability ([3]; first compound 0.1 µM): 0.939
- relative viability ([3]; first compound 0.3162 µM): 0.924
- relative viability ([3]; first compound 1 µM): 0.975
- relative viability ([4]; first compound 0.02 µM): 0.779
- relative viability ([4]; first compound 0.06325 µM): 0.828
- relative viability ([4]; first compound 0.2 µM): 0.56
- relative viability ([4]; first compound 0.6325 µM): 1.07
- relative viability ([4]; first compound 2 µM): 1.06

Cell Line: NCI-H460
- relative viability ([1]; first compound 0.01 µM): 0.0576
- relative viability ([1]; first compound 0.03162 µM): 0.0545
- relative viability ([1]; first compound 0.1 µM): 0.0685
- relative viability ([1]; first compound 0.3162 µM): 0.0617
- relative viability ([1]; first compound 1 µM): 0.0615
- relative viability ([2]; first compound 0.02 µM): 0.574
- relative viability ([2]; first compound 0.06325 µM): 0.57
- relative viability ([2]; first compound 0.2 µM): 0.447
- relative viability ([2]; first compound 0.6325 µM): 0.356
- relative viability ([2]; first compound 2 µM): 0.0953
- relative viability ([3]; first compound 0.01 µM): 1.07
- relative viability ([3]; first compound 0.03162 µM): 1.3
- relative viability ([3]; first compound 0.1 µM): 1.24
- relative viability ([3]; first compound 0.3162 µM): 1.14
- relative viability ([3]; first compound 1 µM): 1.23
- relative viability ([4]; first compound 0.02 µM): 1.38
- relative viability ([4]; first compound 0.06325 µM): 1.15
- relative viability ([4]; first compound 0.2 µM): 1.12
- relative viability ([4]; first compound 0.6325 µM): 1.13
- relative viability ([4]; first compound 2 µM): 1.13

Cell Line: NCI-H838
- relative viability ([1]; first compound 0.01 µM): 0.239
- relative viability ([1]; first compound 0.03162 µM): 0.236
- relative viability ([1]; first compound 0.1 µM): 0.254
- relative viability ([1]; first compound 0.3162 µM): 0.251
- relative viability ([1]; first compound 1 µM): 0.268
- relative viability ([2]; first compound 0.02 µM): 0.314
- relative viability ([2]; first compound 0.06325 µM): 0.296
- relative viability ([2]; first compound 0.2 µM): 0.288
- relative viability ([2]; first compound 0.6325 µM): 0.259
- relative viability ([2]; first compound 2 µM): 0.219
- relative viability ([3]; first compound 0.01 µM): 1.25
- relative viability ([3]; first compound 0.03162 µM): 1.22
- relative viability ([3]; first compound 0.1 µM): 1.16
- relative viability ([3]; first compound 0.3162 µM): 1.26
- relative viability ([3]; first compound 1 µM): 1.17
- relative viability ([4]; first compound 0.02 µM): 0.746
- relative viability ([4]; first compound 0.06325 µM): 0.95
- relative viability ([4]; first compound 0.2 µM): 0.941
- relative viability ([4]; first compound 0.6325 µM): 0.685
- relative viability ([4]; first compound 2 µM): 1.04
